This is an account of results in ChEMBL document CHEMBL1201862, “PubChem BioAssay data set” (2004).

The source made the active and inactive calls.

For experiment [1], the target named is Serine/threonine-protein phosphatase PP1-alpha catalytic subunit (Homo sapiens, UniProt P62136). Kind of experiment: PP1 phosphatase inhibitors, dose response, biochemical, fluorescence (AID 2394).
Experiment [2] in a line: microbe, parasite or virus in culture. Format: functional. The conditions noted are these: Mycobacterium tuberculosis.
Experiment [3] concerns the target Serine/threonine-protein phosphatase (Homo sapiens, UniProt Q9BPW0). The experiment in a line: PP5 phosphatase inhibitors, dose response, biochemical, fluorescence (AID 2395).
The target in experiment [4] is T1, Replicative DNA helicase DnaB (Mycobacterium tuberculosis, UniProt P9WMR3).
T1 sequence (P9WMR3 whole entry): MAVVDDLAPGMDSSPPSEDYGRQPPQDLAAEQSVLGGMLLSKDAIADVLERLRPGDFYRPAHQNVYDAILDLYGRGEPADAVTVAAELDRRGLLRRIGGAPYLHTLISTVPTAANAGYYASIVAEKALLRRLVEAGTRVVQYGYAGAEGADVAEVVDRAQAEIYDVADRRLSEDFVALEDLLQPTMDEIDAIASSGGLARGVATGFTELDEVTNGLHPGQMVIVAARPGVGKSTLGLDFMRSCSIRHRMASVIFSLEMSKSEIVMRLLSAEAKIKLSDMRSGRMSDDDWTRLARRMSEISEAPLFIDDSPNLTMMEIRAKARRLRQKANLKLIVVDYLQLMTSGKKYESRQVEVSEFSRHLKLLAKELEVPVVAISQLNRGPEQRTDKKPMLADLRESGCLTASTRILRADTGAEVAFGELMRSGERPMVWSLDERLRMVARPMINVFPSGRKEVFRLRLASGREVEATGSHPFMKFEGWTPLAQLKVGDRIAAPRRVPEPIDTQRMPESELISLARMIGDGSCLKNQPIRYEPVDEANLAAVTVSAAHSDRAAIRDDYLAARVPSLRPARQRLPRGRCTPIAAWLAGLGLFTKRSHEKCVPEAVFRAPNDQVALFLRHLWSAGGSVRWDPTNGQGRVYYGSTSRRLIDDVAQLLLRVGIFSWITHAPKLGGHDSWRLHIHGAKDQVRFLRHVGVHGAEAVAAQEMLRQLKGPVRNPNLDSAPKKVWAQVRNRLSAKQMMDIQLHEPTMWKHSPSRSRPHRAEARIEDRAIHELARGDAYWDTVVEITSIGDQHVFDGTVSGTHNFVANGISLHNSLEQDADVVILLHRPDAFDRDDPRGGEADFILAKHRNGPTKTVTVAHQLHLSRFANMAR
Kind of experiment: DnaB intein splicing inhibitors, dose response, biochemical, cell-free fluorescence (AID 449749). Type of experiment: functional.

Experiment [5] deals with T2, Apoptotic protease-activating factor 1 (Homo sapiens, UniProt O14727).
T2 sequence (O14727 whole entry): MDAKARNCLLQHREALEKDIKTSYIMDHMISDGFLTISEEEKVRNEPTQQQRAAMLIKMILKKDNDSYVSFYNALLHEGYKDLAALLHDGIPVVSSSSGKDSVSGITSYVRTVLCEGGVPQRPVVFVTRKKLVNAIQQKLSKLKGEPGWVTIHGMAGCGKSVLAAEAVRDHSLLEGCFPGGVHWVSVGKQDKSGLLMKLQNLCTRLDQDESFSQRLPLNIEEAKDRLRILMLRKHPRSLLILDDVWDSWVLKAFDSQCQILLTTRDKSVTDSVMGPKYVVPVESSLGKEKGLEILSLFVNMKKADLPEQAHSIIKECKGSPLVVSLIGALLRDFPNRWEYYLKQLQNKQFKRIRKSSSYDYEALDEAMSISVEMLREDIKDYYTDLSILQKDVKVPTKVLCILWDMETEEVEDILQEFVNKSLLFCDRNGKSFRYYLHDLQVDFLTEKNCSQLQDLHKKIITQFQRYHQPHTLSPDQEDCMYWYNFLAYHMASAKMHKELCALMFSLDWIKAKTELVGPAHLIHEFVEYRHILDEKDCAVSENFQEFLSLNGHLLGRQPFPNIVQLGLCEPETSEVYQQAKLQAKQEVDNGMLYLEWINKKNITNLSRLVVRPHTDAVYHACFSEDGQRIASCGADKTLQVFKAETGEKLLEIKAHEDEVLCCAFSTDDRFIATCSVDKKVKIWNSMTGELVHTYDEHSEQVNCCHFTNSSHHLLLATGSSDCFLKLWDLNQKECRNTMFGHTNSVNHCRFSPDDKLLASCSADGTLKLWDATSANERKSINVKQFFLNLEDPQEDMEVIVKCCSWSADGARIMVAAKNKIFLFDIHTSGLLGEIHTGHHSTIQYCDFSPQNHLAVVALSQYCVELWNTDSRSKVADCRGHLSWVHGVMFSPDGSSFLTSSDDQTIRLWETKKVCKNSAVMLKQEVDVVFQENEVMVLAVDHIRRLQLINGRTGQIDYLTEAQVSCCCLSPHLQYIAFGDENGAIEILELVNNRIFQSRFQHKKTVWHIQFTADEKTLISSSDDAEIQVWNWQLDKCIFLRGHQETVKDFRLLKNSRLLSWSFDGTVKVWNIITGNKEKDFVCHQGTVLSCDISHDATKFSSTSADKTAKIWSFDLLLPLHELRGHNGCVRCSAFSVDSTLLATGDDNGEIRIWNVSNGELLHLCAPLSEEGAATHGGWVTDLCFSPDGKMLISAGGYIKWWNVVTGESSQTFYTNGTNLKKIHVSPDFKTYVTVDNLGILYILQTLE
Format: functional.

The target in experiment [6] is T3, Protein RecA (Mycobacterium tuberculosis, UniProt P9WHJ3).
T3 sequence (P9WHJ3 whole entry): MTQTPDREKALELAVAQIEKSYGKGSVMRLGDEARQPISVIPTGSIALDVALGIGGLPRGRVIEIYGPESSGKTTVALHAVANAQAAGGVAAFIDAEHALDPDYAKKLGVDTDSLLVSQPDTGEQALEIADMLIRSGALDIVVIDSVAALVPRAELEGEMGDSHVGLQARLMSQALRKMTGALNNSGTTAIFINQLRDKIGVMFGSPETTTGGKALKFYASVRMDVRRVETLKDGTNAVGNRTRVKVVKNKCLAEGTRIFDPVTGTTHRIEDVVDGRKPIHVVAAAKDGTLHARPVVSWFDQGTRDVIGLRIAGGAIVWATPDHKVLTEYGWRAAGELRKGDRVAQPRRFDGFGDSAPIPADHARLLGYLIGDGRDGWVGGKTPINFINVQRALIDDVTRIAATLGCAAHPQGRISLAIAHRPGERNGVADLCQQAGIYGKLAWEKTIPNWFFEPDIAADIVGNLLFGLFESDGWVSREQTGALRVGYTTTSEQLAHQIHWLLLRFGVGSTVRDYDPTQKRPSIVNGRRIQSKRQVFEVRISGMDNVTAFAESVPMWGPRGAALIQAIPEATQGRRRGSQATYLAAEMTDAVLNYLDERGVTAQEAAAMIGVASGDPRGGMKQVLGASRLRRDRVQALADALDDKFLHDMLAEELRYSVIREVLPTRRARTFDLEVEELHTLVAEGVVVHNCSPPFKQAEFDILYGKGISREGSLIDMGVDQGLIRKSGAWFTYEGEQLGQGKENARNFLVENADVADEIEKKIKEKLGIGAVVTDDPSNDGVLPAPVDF
Kind of experiment: Fluorescence Cell-Free Homogeneous Dose Retest to Identify Inhibitors of RecA-Intein Splicing Activity. [Related pubchem assays (depositor defined):AID2097, AID2223, AID489010, AID492950]. Type of experiment: functional.

Experiment [7] has as its target T4, Tyrosyl-DNA phosphodiesterase 2 (Homo sapiens, UniProt O95551).
T4 sequence (O95551 whole entry): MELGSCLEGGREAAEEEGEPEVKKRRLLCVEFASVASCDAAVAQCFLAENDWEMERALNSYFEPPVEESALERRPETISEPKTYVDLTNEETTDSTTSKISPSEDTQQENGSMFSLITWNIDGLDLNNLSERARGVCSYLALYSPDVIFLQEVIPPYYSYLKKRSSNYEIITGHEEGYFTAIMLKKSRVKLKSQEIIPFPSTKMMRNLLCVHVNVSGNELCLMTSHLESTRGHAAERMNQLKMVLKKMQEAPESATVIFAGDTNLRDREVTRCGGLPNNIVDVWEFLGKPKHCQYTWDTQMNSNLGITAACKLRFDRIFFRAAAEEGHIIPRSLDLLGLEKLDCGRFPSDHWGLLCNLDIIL
Kind of experiment: human TDP2 enzyme inhibitors, dose response, biochemical, epi absorbance, IC50 (AID 743297).

Experiment [8] is described as follows: NIH-3T3 fibroblast cytotoxicity, dose response, cytotoxicity control, cell-based, fluorescence, Alamar Blue, secondary assay (AID 2327).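 Note: NIH-3T3 mouse fibroblasts cultured with fluconazole at 8 µg/mL.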 Type of experiment: functional.
Experiment [9] concerns the target Galanin receptor type 2 (Homo sapiens, UniProt O43603). Kind of experiment: Dose Response cell-based high-throughput screening assay to identify antagonists of galanin receptor 2 (GALR2). [Related pubchem assays: 828, 866 ]. Format: functional.
Experiment [10] in a line: C. albicans growth with fluconazole, confirmation, fluorescence, retest (AID 2467). Type of experiment: functional, cell-based.
For experiment [11], the target named is T5, Serine/threonine-protein phosphatase (Candida dubliniensis (strain CD36 / CBS 7987 / NCPF 3949 / NRRLY-17841) (Yeast), UniProt B9W6M3).
T5 sequence (B9W6M3 whole entry): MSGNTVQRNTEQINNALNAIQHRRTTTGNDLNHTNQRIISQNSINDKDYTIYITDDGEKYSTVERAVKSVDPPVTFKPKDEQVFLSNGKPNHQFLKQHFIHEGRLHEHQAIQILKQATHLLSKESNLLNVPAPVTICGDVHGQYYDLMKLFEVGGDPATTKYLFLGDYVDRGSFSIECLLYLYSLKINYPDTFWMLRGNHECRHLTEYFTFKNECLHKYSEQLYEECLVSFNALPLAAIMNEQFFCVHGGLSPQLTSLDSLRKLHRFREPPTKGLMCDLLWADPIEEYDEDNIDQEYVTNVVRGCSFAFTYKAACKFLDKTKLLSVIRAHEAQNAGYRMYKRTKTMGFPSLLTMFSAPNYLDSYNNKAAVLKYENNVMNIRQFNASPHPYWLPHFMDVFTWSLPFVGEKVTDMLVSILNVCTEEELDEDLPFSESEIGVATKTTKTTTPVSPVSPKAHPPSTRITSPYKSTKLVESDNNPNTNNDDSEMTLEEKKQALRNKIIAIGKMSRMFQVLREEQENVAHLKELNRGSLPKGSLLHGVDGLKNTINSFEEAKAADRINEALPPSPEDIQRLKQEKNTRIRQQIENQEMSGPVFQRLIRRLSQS
Kind of experiment: calcineurin pathway inhibitors in yeast reporter, dose response, S. cerevisiae, CDRE-lacZ, luminescence, secondary (AID 2388).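 Note: yeast reporter cells carrying a calcineurin-responsive lacZ construct stimulated with calcium chloride; luminescent beta-galactosidase reporter signal in whole cells rather than isolated phosphatase activity; potency for inhibition where a drop in reporter signal means calcineurin blockade.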 Type of experiment: functional, cell-based.

The subject of experiment [12] is INS1. Kind of experiment: beta cell apoptosis inhibitors, cytokine rescue, dose response, luminescence, retest (AID 449756).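 Note: cell death triggered by IL-1 beta plus TNF-alpha plus IFN-gamma mixture; protective hits raise ATP signal compared with cytokine alone wells.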 Format: functional, cell-based. The conditions noted are these: Rattus norvegicus.
Experiment [13] has as its target ATP-dependent molecular chaperone HSP82 (Candida albicans (strain WO-1) (Yeast), UniProt C4YTQ8). Kind of experiment: loss of DOC-induced GRE-beta-galactosidase reporter signal, dose response, Hsp90 inhibitor project, S. cerevisiae, luminescence (AID 2400).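 Note: beta-galactosidase luminescence from glucocorticoid response element reporter as proxy for Hsp90 function; inhibitor potency where signal loss means Hsp90 inhibition.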 Type of experiment: functional, cell-based.
Experiment [14] deals with Protein Wnt-3a (Mus musculus, UniProt P27467). The experiment in a line: Wnt3a-driven reporter signaling inhibition, dose response, selectivity assay for Gli-SUFU antagonist project, Wnt-LIGHT cells, luminescence (AID 651570).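 Note: Wnt-LIGHT reporter cells stimulated with conditioned medium from Wnt3a-producing cells.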 Format: functional. The conditions noted are these: read-out: IC50_Mean.
In experiment [15] the target is T6, Bcl-2-related protein A1 (Mus musculus, UniProt Q07440).
T6 sequence (Q07440 whole entry): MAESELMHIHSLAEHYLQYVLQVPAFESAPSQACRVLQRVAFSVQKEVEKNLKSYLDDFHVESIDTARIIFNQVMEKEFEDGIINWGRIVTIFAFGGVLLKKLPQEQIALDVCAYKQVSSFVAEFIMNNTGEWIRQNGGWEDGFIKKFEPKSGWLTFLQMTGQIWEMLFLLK
The experiment in a line: Bfl-1 inhibitors, primary screen, biochemical, fluorescence polarization, FITC-Bid, mouse (AID 432).

The target of experiment [16] is T7, Voltage-gated N-type calcium channel alpha-1B subunit/Amyloid beta A4 precursor protein-binding family A member 1 (Homo sapiens, UniProt Q00975+Q02410). Format: protein assay.
T7 sequence (Q00975 whole entry): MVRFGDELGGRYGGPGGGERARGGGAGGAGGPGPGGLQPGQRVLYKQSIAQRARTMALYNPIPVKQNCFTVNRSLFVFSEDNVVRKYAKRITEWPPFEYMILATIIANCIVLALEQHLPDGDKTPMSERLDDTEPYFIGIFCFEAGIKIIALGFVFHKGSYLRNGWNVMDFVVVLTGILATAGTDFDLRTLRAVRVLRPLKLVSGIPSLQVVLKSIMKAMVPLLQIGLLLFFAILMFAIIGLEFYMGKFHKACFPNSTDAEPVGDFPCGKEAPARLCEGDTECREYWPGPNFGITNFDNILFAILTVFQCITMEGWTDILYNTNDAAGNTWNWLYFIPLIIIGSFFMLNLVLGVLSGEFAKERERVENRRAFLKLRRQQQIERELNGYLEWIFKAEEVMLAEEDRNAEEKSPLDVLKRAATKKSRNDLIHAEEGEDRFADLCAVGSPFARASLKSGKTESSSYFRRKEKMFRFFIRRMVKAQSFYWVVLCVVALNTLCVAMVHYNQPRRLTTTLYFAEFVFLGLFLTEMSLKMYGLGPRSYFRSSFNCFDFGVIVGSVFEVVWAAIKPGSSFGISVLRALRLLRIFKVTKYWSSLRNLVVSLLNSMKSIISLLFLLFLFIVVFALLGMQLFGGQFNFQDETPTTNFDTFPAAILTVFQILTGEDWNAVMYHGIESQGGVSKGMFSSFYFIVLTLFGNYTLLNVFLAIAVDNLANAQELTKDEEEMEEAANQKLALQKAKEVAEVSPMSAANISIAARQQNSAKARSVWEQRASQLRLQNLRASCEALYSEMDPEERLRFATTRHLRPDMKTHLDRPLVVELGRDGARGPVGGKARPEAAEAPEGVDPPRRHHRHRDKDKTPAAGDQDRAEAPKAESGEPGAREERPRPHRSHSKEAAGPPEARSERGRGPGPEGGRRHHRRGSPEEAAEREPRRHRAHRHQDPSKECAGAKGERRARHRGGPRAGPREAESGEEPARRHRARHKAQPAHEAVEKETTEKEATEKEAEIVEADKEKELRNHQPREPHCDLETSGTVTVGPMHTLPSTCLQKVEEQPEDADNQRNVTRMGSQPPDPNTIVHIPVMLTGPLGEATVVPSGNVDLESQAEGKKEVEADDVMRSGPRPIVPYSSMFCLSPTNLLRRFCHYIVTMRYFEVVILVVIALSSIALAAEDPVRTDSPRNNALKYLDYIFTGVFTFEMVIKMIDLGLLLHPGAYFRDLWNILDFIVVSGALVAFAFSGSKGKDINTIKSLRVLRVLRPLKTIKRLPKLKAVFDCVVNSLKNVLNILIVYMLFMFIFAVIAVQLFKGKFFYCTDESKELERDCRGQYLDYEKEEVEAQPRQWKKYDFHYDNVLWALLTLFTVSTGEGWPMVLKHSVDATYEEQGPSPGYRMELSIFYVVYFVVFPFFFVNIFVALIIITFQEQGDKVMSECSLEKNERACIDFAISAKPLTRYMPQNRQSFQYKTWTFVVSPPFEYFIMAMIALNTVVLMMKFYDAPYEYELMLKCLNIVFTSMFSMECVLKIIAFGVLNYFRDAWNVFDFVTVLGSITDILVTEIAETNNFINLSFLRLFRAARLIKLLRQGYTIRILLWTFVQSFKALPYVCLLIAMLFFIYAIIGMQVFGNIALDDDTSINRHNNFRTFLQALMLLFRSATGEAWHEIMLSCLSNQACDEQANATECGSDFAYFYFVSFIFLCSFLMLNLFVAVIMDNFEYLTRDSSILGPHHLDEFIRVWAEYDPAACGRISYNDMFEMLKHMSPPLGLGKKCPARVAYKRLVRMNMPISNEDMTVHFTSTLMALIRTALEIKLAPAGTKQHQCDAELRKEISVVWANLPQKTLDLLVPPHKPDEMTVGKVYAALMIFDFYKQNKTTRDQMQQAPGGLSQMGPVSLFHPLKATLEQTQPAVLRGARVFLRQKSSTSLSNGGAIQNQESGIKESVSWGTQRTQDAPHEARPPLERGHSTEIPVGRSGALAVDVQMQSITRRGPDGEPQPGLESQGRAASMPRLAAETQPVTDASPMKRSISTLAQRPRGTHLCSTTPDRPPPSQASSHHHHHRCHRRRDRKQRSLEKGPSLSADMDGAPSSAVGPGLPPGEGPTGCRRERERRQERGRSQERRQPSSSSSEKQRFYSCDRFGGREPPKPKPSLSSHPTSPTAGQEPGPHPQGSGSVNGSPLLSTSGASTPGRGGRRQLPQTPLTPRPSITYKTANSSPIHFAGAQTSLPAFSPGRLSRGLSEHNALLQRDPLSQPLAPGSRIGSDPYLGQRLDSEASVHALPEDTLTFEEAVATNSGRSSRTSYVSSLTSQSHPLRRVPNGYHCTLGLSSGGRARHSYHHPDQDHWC
T7 sequence (Q02410 whole entry): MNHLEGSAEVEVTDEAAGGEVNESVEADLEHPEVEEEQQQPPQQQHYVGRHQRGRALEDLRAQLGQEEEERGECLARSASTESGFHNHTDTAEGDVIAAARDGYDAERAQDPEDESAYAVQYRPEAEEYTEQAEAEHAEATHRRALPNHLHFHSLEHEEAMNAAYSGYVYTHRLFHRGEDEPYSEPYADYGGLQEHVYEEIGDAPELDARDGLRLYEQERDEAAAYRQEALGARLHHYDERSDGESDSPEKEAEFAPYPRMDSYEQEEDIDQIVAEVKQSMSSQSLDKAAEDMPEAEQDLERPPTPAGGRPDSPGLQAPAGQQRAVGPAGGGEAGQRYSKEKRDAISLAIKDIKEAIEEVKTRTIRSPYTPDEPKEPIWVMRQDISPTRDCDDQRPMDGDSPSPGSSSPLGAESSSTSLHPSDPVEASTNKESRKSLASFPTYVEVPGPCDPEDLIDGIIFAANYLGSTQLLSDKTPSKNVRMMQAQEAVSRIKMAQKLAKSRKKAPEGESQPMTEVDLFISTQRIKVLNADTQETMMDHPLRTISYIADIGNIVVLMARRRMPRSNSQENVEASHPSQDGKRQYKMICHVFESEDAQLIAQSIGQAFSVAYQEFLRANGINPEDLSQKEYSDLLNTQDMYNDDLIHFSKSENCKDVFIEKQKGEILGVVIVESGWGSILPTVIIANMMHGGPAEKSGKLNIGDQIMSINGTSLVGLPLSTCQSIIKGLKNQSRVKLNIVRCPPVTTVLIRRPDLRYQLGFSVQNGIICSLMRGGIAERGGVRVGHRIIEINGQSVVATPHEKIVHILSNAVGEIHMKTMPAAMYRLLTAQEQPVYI
The target of experiment [17] is T7, Voltage-gated N-type calcium channel alpha-1B subunit/Amyloid beta A4 precursor protein-binding family A member 1. Type of experiment: protein assay. This is another data set of the same source.
For experiment [18], the target named is T6, Bcl-2-related protein A1. The experiment in a line: Bfl-1 inhibitors blocking BH3 peptide binding, confirmation, biochemical, TR-FRET, mouse Bfl-1 (AID 621).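 Note: TR-FRET binding of GST-Bfl-1 to FITC-labelled Bid peptide via terbium antibody.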
Experiment [19] addresses Beta-lactamase (Pseudomonas aeruginosa, UniProt Q79MP6).
For experiment [20], the target named is Dual specificity protein phosphatase 6 (Rattus norvegicus, UniProt Q64346). The experiment in a line: MKP-3 phosphatase inhibitors, primary screen, biochemical, rat enzyme, in vitro (AID 425).
Dual specificity protein phosphatase 6, sequence (Q64346 whole entry): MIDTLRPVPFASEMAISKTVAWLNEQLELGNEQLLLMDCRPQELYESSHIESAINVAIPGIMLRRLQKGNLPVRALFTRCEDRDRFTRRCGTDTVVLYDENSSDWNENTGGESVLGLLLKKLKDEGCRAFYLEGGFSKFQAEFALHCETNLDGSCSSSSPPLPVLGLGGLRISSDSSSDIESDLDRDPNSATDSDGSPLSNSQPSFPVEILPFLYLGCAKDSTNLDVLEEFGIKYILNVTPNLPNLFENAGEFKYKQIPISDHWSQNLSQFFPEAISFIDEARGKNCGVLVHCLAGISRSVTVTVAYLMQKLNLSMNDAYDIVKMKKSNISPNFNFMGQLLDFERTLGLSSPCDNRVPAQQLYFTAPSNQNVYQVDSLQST
The target in experiment [21] is Beta-lactamase (Salmonella choleraesuis (strain SC-B67), UniProt Q5J463).
Beta-lactamase (Salmonella choleraesuis (strain SC-B67), UniProt Q5J463), sequence (Q5J463 whole entry): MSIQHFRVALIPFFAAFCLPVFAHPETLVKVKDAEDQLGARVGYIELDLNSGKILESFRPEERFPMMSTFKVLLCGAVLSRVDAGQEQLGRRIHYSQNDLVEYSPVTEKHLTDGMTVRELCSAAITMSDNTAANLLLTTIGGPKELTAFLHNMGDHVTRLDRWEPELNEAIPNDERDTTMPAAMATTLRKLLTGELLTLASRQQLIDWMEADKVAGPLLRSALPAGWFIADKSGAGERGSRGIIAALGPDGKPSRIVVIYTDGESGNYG
Experiment [22] addresses Mitogen-activated protein kinase 10 (Homo sapiens, UniProt P53779). Kind of experiment: Dose response biochemical screening assay for inhibitors of c-Jun N-Terminal Kinase 3 (JNK3). [Related pubchem assays: 746 ].

Serine/threonine-protein phosphatase (Homo sapiens, UniProt Q9BPW0), sequence (Q9BPW0 whole entry): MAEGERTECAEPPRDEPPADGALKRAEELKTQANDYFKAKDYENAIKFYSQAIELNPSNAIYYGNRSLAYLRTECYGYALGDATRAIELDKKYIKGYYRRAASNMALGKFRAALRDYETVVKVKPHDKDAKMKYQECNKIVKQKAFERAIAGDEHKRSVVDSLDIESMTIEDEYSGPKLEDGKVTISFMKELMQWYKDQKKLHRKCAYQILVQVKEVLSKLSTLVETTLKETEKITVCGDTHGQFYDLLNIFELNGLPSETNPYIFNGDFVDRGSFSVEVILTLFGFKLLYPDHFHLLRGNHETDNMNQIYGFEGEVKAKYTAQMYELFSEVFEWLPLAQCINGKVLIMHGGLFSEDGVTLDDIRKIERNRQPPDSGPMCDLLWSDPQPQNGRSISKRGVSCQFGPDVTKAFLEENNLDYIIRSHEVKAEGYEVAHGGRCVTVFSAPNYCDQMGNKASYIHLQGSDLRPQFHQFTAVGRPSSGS
ATP-dependent molecular chaperone HSP82, sequence (C4YTQ8 whole entry): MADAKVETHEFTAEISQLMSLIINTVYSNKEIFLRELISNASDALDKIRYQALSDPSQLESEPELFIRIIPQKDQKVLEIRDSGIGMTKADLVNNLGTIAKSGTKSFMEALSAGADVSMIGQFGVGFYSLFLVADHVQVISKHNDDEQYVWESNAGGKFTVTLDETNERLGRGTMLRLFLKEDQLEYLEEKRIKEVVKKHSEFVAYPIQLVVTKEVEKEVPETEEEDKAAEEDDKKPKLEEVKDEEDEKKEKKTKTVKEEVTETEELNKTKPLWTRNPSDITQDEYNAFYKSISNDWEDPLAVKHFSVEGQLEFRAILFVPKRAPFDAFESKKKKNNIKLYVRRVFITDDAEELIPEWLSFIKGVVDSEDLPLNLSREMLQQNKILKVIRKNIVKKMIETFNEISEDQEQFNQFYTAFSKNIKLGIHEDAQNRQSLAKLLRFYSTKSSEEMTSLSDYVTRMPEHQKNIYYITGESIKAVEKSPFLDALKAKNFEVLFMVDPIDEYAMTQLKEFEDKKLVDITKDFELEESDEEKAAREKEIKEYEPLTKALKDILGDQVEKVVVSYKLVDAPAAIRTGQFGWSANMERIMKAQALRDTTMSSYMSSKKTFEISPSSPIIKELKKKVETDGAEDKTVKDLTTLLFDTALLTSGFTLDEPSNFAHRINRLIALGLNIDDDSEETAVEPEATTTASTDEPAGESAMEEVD

Consider `O=C(/C=C/c1ccc(O)cc1)c1ccc(/N=C2\C(=O)c3ccccc3C(O)=C2N2CCCCC2)cc1`, for which the IC50 in experiment [1] is > 67 µM (not active); in [3] it was 26.4 µM (not active); in experiment [5], 2.91 µM (active); in experiment [7], > 128 µM (inactive). Besides, the CC50 in experiment [2] was 8.74 µM (active). In addition, the AC50 in [4] is > 380 µM (inactive). Also, the EC50 in [6] is 0.707 µM (active).

Regarding `c1ccc2c(c1)OCC(CNc1ncnc3sccc13)O2` (configuration not stated), the EC50 was > 150 µM (inactive) in experiment [8], 0.27 µM (active) in experiment [10], > 180 µM (inactive) in experiment [11] and > 150 µM (inactive) in experiment [13]. Moreover, the IC50 is > 42 µM (not active) in [9] and 1.83 µM (active) in experiment [14]. Also, the AC50 in experiment [12] was 0.941 µM (active).

As to `O=C1c2ccccc2-c2onc3ccc(NCCCn4ccnc4)c1c23`, the IC50 is > 100 µM (not active) in experiment [15]; 3.18 µM (active) in experiment [16]; > 50 µM (inactive) in experiment [17]; > 100 µM (not active) in experiment [18]; 5.38 µM (active) in [19]; 1.19 µM (active) in experiment [20]. For the same compound, the IC50 in experiment [21] is 3.02 µM (active); in experiment [22], 22.2 µM (not active).
